Measured values taken from patent publication US10889573B2, “Anthelmintic quinoline-3-carboxamide derivatives” (Bayer Animal Health GMBH, priority 2016, dated 2021).

Experiments:
[1] = tested on: Nippostrongylus brasiliensis; test: In vitro assay 2: Nippostrongylus brasiliensis (NIPOBR), acetylcholine esterase readout; details: read-out: activity (reduction of AChE compared to negative control); for inhibition at 1 µg/mL: 1 μg/ml; for inhibition at 10 µg/mL: 10 μg/ml
Method: In Vitro Assay 2: Nippostrongylus brasiliensis (NIPOBR)
Adult Nippostrongylus brasiliensis were washed with saline buffer containing 100 U/ml penicillin, 0.1 mg/ml streptomycin and 2.5 μg/ml amphotericin B. Test compounds were dissolved in DMSO and worms were incubated in medium in a final concentration of 10 μg/ml (10 ppm) respectively 1 μg/ml (1 ppm). An aliquot of the medium was used to determine the acetylcholine esterase activity in comparison to a negative control. The principle of measuring acetylcholine esterase as readout for anthelmintic activity was described in Rapson et al (1986) and Rapson et al (1987).

[2] = tested on: Dirofilaria immitis microfilariae; test: In vitro assay 3: Dirofilaria immitis microfilariae (DIROIM L1), motility; details: 72 h, read-out: EC50 (reduction of motility), 72 h incubation
[3] = tested on: Dirofilaria immitis third-stage larvae; test: In vitro assay 4: Dirofilaria immitis (DIROIM L4), motility; details: 72 h, read-out: EC50 (reduction of motility)
Cooperia curticei = details: Cooperia curticei, 120 h, read-out: activity (larval mortality)
Method: In Vitro Assay 6: Cooperia curticei (COOPCU L3)
Solvent: dimethyl sulfoxide
Approximately 40 nematode larvae (Cooperia curticei) are transferred into a test tube containing the compound solution.
After 5 days percentage of larval mortality is recorded. 100% efficacy means all larvae are killed; 0% efficacy means no larvae are killed.

Haemonchus contortus = details: 120 h, read-out: activity (larval mortality)
Method: In Vitro Assay 7: Haemonchus contortus (HAEMCO L3)
Solvent: dimethyl sulfoxide
Approximately 40 larvae of the red stomach worm (Haemonchus contortus) are transferred into a test tube containing compound solution.
After 5 days the percentage of larval mortality is recorded. 100% efficacy means all larvae are killed, 0% efficacy means no larvae are killed.

C. elegans Slo-1a = C. elegans Slo-1a (Caenorhabditis elegans, UniProt Q95V25); details: pE50 (negative decadic logarithm of EC50), CHO cells expressing C. elegans Slo-1a, voltage sensitive dye
Chain of C. elegans Slo-1a (Q95V25 whole entry): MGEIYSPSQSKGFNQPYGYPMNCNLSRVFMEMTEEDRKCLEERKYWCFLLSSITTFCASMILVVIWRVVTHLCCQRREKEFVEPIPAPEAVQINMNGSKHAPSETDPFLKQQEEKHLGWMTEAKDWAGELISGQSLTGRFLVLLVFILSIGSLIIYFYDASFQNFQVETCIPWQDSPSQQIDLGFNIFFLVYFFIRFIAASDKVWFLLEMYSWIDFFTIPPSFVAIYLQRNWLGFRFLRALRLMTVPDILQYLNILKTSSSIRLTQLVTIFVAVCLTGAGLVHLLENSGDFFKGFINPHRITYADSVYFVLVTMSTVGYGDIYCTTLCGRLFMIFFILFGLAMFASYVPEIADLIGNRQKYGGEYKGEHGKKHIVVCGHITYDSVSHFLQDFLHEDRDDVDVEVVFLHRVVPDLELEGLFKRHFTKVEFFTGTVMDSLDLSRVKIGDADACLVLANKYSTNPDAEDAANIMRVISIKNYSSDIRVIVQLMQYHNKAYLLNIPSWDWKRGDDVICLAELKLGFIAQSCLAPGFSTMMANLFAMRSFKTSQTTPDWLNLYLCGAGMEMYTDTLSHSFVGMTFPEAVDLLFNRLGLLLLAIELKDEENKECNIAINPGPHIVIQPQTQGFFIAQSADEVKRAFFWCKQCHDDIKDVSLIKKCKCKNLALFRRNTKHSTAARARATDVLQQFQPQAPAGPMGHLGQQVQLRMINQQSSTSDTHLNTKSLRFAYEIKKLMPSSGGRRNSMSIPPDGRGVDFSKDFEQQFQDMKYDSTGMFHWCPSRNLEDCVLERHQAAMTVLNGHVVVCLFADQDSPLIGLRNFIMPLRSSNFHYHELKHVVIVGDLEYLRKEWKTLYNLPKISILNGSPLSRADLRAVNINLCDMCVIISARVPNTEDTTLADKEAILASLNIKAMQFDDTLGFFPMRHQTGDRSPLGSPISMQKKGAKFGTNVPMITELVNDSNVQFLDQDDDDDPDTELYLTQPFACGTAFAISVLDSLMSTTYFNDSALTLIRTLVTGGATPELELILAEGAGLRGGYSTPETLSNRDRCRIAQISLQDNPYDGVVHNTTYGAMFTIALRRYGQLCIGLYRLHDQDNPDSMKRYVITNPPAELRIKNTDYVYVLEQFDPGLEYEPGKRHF

Row | SMILES | inhibition at 1 µg/mL [1] [%] | EC50 [2] [mg/L] | EC50 [3] [mg/L] | mortality at 4 ppm (Cooperia curticei) [%] | mortality at 20 ppm (Cooperia curticei) [%] | mortality at 4 ppm (Haemonchus contortus) [%] | mortality at 20 ppm (Haemonchus contortus) [%] | EC50 (C. elegans Slo-1a) [nM] | inhibition at 10 µg/mL [1] [%]
1 | O=C(N[C@H]1CCOc2ccccc21)c1cnc2c(-c3cccc(Cl)c3Cl)cccc2c1N1CCC(O)C1 (mixture of isomers) [Example 194] | > 80 | < 0.1 | < 0.1 | 100 | 100 | 90 | 100 | < 3.16 | 
2 | O=C(N[C@H]1CCOc2ccccc21)c1cnc2c(-c3cccc(F)c3Cl)cccc2c1N1CCC(O)C1 (mixture of isomers) [Example 258] |  | < 0.1 | < 0.1 | 80 |  |  | 90 | 3.16 to 31.6 | 
3 | O=C(N[C@H]1CCOc2ccccc21)c1cnc2c(-c3cccc(Cl)c3)cccc2c1N1CCC(O)C1 (mixture of isomers) [Example 260] | > 80 | < 0.1 | < 0.1 | 80 | 90 | 80 | 90 | < 3.16 | 
4 | O=C(N[C@H]1CCOc2ccccc21)c1cnc2c(-c3cc(Cl)cc(C(F)(F)F)c3)cccc2c1N1CCC(O)C1 (mixture of isomers) [Example 271] | > 80 | < 0.1 | < 0.1 | 90 | 90 | 90 | 90 | < 3.16 | 
5 | Cc1cc(Cl)cc(-c2cccc3c(N4CCC(O)C4)c(C(=O)N[C@H]4CCOc5ccccc54)cnc23)c1F (mixture of isomers) [Example 272] | > 80 | < 0.1 | < 0.1 |  | 80 | 90 | 90 | < 3.16 | 
6 | CN(C)c1c(C(=O)N[C@H]2CCOc3ccccc32)cnc2c(-c3cc(F)c(F)c(F)c3)cccc12 [Example 47] | > 80 | < 0.1 | < 0.1 | 80 | 80 | 90 | 100 | < 3.16 | > 80
7 | CN(C)c1c(C(=O)N[C@H]2CCOc3ccccc32)cnc2c(-c3cccc(C(F)(F)F)c3F)cccc12 [Example 50] | > 80 | < 0.1 | < 0.1 | 80 | 90 | 90 | 100 | < 3.16 | > 80
8 | O=C(N[C@H]1CCOc2ccccc21)c1cnc2c(-c3cc(Cl)ccc3F)c(F)ccc2c1N1CCOCC1 [Example 170] | > 80 | < 0.1 | < 0.1 | 100 | 100 | 100 | 100 | < 3.16 | 
9 | CN(C)c1c(C(=O)N[C@H]2CCOc3ccccc32)cnc2c(-c3ccc(F)cc3Cl)c(F)ccc12 [Example 172] | > 80 | < 0.1 | < 0.1 | 100 | 100 | 80 | 100 | < 3.16 | 
10 | O=C(N[C@H]1CCOc2ccccc21)c1cnc2c(-c3cccc4c3OCC4)cccc2c1N1CCOCC1 [Example 204] | > 80 | < 0.1 | < 0.1 |  | 100 |  | 90 | 3.16 to 31.6 | 
11 | O=C(N[C@H]1CCOc2ccccc21)c1cnc2c(-c3cc(Cl)ccc3F)cccc2c1N1CCOCC1 [Example 221] | > 80 | < 0.1 | < 0.1 | 90 | 100 | 90 | 100 | < 3.16 | 
12 | O=C(N[C@H]1CCOc2ccccc21)c1cnc2c(-c3cccc(Cl)c3F)cccc2c1N1CCOCC1 [Example 226] | > 80 | < 0.1 | < 0.1 | 100 | 100 | 90 | 100 | < 3.16 | 
13 | O=C(N[C@H]1CCOc2ccccc21)c1cnc2c(-c3cc(Cl)cc(C(F)(F)F)c3)cccc2c1N1CCOCC1 [Example 235] | > 80 | < 0.1 | < 0.1 | 90 | 100 | 90 | 100 | < 3.16 | 
14 | COC(=O)[C@H]1CCN(c2c(C(=O)N[C@H]3CCOc4ccccc43)cnc3c(-c4cc(Cl)cc(Cl)c4)cccc23)C1 [Example 281] | > 80 | < 0.1 | < 0.1 | 80 | 90 | 80 | 80 | < 3.16 | 
15 | CN(C)c1c(C(=O)N[C@H]2CCOc3ccccc32)cnc2c(-c3cccc(Cl)c3Cl)c(F)ccc12 [Example 330] | > 80 | < 0.1 | < 0.1 | 90 | 90 | 100 | 100 | < 3.16 | 
16 | O=C(N[C@H]1CCOc2ccccc21)c1cnc2c(-c3cc(Cl)cc(Cl)c3)cccc2c1N1CC[C@@H](C(=O)O)C1 [Example 332] | > 80 | < 0.1 | < 0.1 | 100 | 100 | 100 | 100 | < 3.16 | 
17 | CC(C)c1c(C(=O)N[C@H]2CCOc3ccccc32)cnc2c(-c3cc(Cl)cc(Cl)c3)cccc12 [Example 359, 8-(3,5-dichlorophenyl)-N-[(4S)-3,4-dihydro-2H-chromen-4-yl]-4-isopropyl-quinoline-3-carboxamide] | > 80 | < 0.1 | < 0.1 | 100 | 100 | 100 | 100 | < 3.16 | 
18 | CC(C)c1c(C(=O)N[C@H]2CCOc3ccccc32)cnc2c(-c3cccc(C(F)(F)F)c3F)cccc12 [Example 408] | > 80 | < 0.1 | < 0.1 | 100 | 100 | 90 | 90 | < 3.16 | 
19 | CC(C)c1c(C(=O)N[C@H]2CCOc3ccccc32)cnc2c(-c3cccc(C(F)(F)F)c3)cccc12 [Example 411] | > 80 | < 0.1 | < 0.1 | 100 | 100 | 100 | 100 | < 3.16 | 
20 | CN(C)c1c(C(=O)N[C@H]2CCOc3ccccc32)cnc2c(-c3cc(Cl)ncc3Cl)cccc12 [Example 415] | > 80 | < 0.1 | < 0.1 | 100 | 100 | 90 | 100 | < 3.16 | 
21 | COc1ccc(-c2cc(Cl)cc(Cl)c2)c2ncc(C(=O)N[C@H]3CCOc4ccccc43)c(N(C)C)c12 [Example 504] | > 80 | < 0.1 | < 0.1 | 100 | 100 | 100 | 100 | < 3.16 | 
22 | O=C(N[C@H]1CCOc2ccccc21)c1cnc2c(-c3cc(Cl)cc(Cl)c3)cccc2c1C1CCOCC1 [Example 539, 8-(3,5-dichlorophenyl)-N-[(4S)-3,4-dihydro-2H-chromen-4-yl]-4-(tetrahydro-2H-pyran-4-yl)quinoline-3-carboxamide] |  | < 0.1 | < 0.1 | 100 | 100 | 100 | 100 | < 3.16 | 
23 | CCc1c(C(=O)N[C@H]2CCOc3ccccc32)cnc2c(-c3cc(Cl)cc(Cl)c3Cl)cccc12 [Example 573] | > 80 | < 0.1 | < 0.1 | 100 | 100 | 100 | 100 | 3.16 to 31.6 | 
24 | O=C(N[C@H]1CCOc2ccccc21)c1cnc2c(-c3cc(F)cc(F)c3F)cccc2c1C1COC1 [Example 660, N-[(4S)-3,4-dihydro-2H-chromen-4-yl]-4-(oxetan-3-yl)-8-(2,3,5-trifluorophenyl)quinoline-3-carboxamide] | > 80 | < 0.1 | < 0.1 | 100 | 100 | 100 | 100 | < 3.16 | 
